Results as given in patent US9120789B2, “1-(5-tert-butyl-2-phenyl-2H-pyrazol-3-yl)-3-[2-fluoro-4-(1-methyl-2-oxo-2,3-dihydro-1H-imidazo[4,5-b]pyridin-7-yloxy)-phenyl]-urea and related compounds and their use in therapy” (CANCER RESEARCH TECHNOLOGY LIMITED, priority 2010, dated 2015).

Key:
[1] = system: WM266.4 melanoma cell line (mutant BRAF); assay: Assay C - SRB cell proliferation assay, WM266.4; format: cell-based; details: Homo sapiens, WM 266-4, 120 h; WM266.4, 5 days growth
Procedure: (§1) Values for the blank (no cells) are subtracted from all values. The DMSO controls are set as 100% activity and assay points (the response) are calculated as a percentage of the DMSO control. Data are plotted using Graphpad Prism software and a non-linear regression line is calculated using a variable slope sigmoidal dose-response equation: Y=Bottom+[Top−Bottom]/[1+10^((Log EC50−X)*HillSlope)] where X is the logarithm of concentration and Y is the response). The IC50 generated by this procedure is the concentration of the drug that produces a percentage control fluorescence value midway between the saturation, and zero-effect plateaus. Three independent assays are usually performed and the mean IC50 is reported. Biological Methods—Assay C—SRB Cell Proliferation Assay (SRB GI50)
Cell lines (e.g., WM266.4 and A375M melanoma cell lines; SW620 colorectal carcinoma cell line) are routinely cultured in DMEM or RPMI1640 supplemented with 10% foetal bovine serum, at 37° C., in 10% CO2 water saturated atmosphere. Cultures are maintained in exponential growth phase by sub-culturing before having become confluent (3-5 day intervals). Single cell suspensions are prepared by harvesting an 80 cm^2 tissue culture flask with 5 mL commercial trypsin EDTA. After 5 minutes, the detached cells are mixed with 5 mL fully complemented culture medium and centrifugally pelleted (1000 rpm for 7 minutes). After aspirating the supernatant, the cell pellet is re-suspended in 10 mL fresh medium and the cells fully disaggregated by drawing the whole volume up/down 5 times through a 19-gauge needle. The concentration of the cells is determined using a haemocytometer ( 1/10 dilution). A suitable volume to give at least a 2-fold excess for the number of tests being conducted, typically 100-200 mL, is prepared by diluting the cell suspension to 10,000-40,000/mL, and 100 μL/well dispensed into 96 well plates using a programmable 8-channel peristaltic pump, giving 1000-4000 cells/well, leaving column 12 blank. The plates are returned to the incubator for 24 hours to allow the cells to re-attach.
The compounds being tested are prepared at 10 mM in DMSO. Aliquots (24 μL) are diluted into 1.2 mL culture medium giving 200 μM, and 10 serial dilutions of 3× performed by transferring 80 μL to 160 μL. Aliquots (100 μL) of each dilution are added to the wells, using an 8-channel pipettor, thus performing a final further 2× dilution, and giving doses ranging from 100 μM to 0.005 μM. Column 11 receives plain culture medium only. Each compound is tested in quadruplicate, each replicate being the average of four wells.
After a further 5 days growth, the plates are emptied, and the cells are fixed in 10% trichloroacteic acid for 30 minutes at 4° C. After thorough rinsing in running tap water, the plates are dried, and stained by adding 50 μL of a solution of 0.1% sulphorhodamine-B in 1% acetic acid, for 10 minutes at room temperature. The stain is poured out and the plates thoroughly rinsed under a stream of 1% acetic acid, thus removing unbound stain, and dried. The bound stain is taken into solution by addition of 100 μL Tris buffer pH 8, followed by 10 minutes on a plate-shaker (approximately 500 rpm). The absorbance at 540 nm in each well (being proportional to the number of cells present) is determined using a plate reader.
After averaging the blank values in column 12 this was subtracted from all values, and results expressed as a percentage of the untreated value (column 11). […] The GI50 generated by this procedure is the concentration of the drug that produces a percentage control A540 midway between the saturation, and zero-effect plateaus.

[2] = system: pERK in mutant BRAF WM266.4 cells; assay: Assay B - cell based phospho-ERK assay; details: Homo sapiens, WM 266-4, 6 hours incubation
Procedure: as §1, with “(Empty Vector)” for “(no cells)”, “response.” for “response).”, “B—Cell Based Phosho-ERK” for “C—SRB Cell Proliferation”, “Assay” for “Assay (SRB GI50)”
Compounds were assessed using a cell-based assay which was performed according to the following protocol.
Plate out 16,000 mutant BRAF WM266.4 cells/well in 99 μL medium in a 96-well plate.
1. Add 1 μL inhibitor (test compound) to the cells (total […]).
2. Incubate the cells with test compound for 6 hours at 37° C.
3. Aspirate off the solution from all of the wells.
4. Fixate the cells with 100 μL 4% formaldehyde/0.25% Triton X-100 PBS per well.
5. Incubate the plate for 1 hour at 4° C.
6. Aspirate off the fixing solution and add 300 μL TBS per well.
7. Leave the plate overnight at 4° C.
1. Wash the plate 2× with 200 μL PBS per well.
2. Block with 100 μL 5% dried milk in TBS.
3. Incubate the plate for 20 minutes at 37° C.
4. Wash the plate 2× with 0.1% tween/H2O.
5. Add 50 μL of 3 μg/mL primary antibody pERK (Sigma M8159), diluted in 5% milk powder/TBS, to each well.
6. Incubate the plate for 2 hours at 37° C.
7. Wash the plate 3× with 0.1% tween/H2O.
8. Add 50 μL of 0.45 μg/mL secondary Europium-labelled anti-mouse antibody (Perkin Elmer) to each well.
9. Incubate the plate for 1 hour at 37° C.
10. Wash the plate 3× with 0.1% tween/H2O.
11. Add 100 μL enhancement solution (Perkin Elmer) to each well.
12. Leave the plate for approximately 10 minutes at room temperature before gently shaking the plate.
13. Read Europium Time Resolved Fluorescence in Victor2.
14. Wash the plate 2× with 0.1% tween/H2O.
15. Measure the protein concentration with BCA (Sigma) by adding 200 μL of solution per well.
16. Incubate the plate for 30 minutes at 37° C.
17. Read absorbance levels at 570 nm in a plate reader.
Note that Europium counts are normalised for protein levels by dividing counts by absorbance.
as §1

B-RAF = B-RAF (Homo sapiens, UniProt P15056); assay: Assay A - DELFIA kinase assay; format: biochemical; details: 100 μM ATP; mean of usually three assays; read-out: Assay A BRAF IC50
B-RAF, sequence (P15056 whole entry): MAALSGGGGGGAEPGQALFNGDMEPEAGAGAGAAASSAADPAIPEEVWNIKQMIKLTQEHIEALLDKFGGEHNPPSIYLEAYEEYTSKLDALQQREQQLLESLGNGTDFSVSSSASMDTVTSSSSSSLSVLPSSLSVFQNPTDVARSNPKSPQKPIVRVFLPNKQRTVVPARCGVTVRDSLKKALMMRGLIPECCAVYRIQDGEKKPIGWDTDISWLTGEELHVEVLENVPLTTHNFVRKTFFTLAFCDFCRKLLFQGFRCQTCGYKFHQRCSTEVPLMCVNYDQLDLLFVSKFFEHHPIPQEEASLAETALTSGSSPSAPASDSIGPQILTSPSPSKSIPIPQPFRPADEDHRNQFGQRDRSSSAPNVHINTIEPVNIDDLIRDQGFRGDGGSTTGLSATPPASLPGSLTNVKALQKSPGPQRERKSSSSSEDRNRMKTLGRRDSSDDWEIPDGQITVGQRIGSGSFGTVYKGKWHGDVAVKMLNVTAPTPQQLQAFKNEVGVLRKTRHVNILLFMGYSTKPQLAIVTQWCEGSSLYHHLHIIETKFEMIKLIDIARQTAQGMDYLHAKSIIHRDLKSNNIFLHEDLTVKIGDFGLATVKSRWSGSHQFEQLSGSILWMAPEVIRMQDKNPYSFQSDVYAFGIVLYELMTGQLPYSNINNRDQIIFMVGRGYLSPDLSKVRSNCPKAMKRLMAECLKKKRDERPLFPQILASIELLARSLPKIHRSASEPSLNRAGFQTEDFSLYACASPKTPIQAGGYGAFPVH
Procedure: Biological Methods—Assay A—DELFIA Kinase Assay
Compounds were assessed by a kinase assay performed according to the following protocol.
The following reagents were prepared:
DELFIA Kinase Buffer (DKB):
DKB1 (DKB with B-RAF and MEK Protein):
Combine 4950 μL of DKB and 50 μL of 2.5 mg/mL GST-MEK stock (to give 1 mg of MEK per 40 μL). Then add 22.5 μL of B-RAF to give ˜0.2 μL of B-RAF per 40 μL.
DKB2 (DKB with MEK Protein):
Combine 4950 μL of DKB and 50 μL of 2.5 mg/mL GST-MEK stock (to give […] of MEK per 40 μL). Use 500 μL of this for the blow out (BO) and the empty vector (EV) control.
100 mM stock, dilute to 500 μM to give 100 μM final concentration in assay.
Inhibitors (Test Compounds):
Phospho-MEK1/2 CST #9121S diluted 1:1000 in DELFIA assay buffer (AB). Pre-incubate antibody in the AB for 30 minutes at room temperature prior to use.
Anti-rabbit-Eur labelled secondary Perkin Elmer #AD0105 diluted 1:1000 in DELFIA assay buffer (AB). Pre-incubate antibody in the AB for 30 minutes at room temperature prior to use. (Primary and secondary antibodies were incubated together.)
DELFIA assay buffer Perkin Elmer #4002-0010.
DELFIA enhancement solution Perkin Elmer #4001-0010.
96 well glutathione-coated black plate Perbio #15340.
1. Preblock wells with 5% milk in TBS for 1 hour.
2. Wash wells 3× with 200 μL TBS.
3. Plate out 40 μL of DKB1 for all inhibitors (test compounds), DMSO control, and optionally other control compounds.
4. Plate out 40 μL of DKB2 for BO and EV wells.
5. Add inhibitors (test compounds) at 0.5 μL per well according to desired plate layout.
6. Add 0.5 μL DMSO to vehicle control wells.
7. Add 2 μL of B-RAF to BO and EV wells.
8. Pre-incubate with inhibitors (test compounds) for 10 minutes at room temperature with shaking.
9. Add 10 μL of 500 μM ATP stock, in DKB, to give 100 μM assay concentration.
10. Seal plates with TopSeal and incubate at room temperature with shaking for 45 minutes.
11. Wash plates 3× with 200 μL 0.1% Tween20/Water to terminate reaction.
12. Add 50 μL per well of antibody mix and incubate for 1 hour at room temperature with shaking.
13. Wash plates 3× with 200 μL 0.1% Tween20/Water.
14. Add 100 μL DELFIA enhancement solution per well, cover in foil, and incubate at room temperature for 30 minutes with shaking.
15. Read on Victor using Europium protocol.
as §1, with “(Empty Vector)” for “(no cells)”, “response.” for “response).”, “B—Cell Based Phosho-ERK” for “C—SRB Cell Proliferation”, “Assay” for “Assay (SRB GI50)”

Cc1ccc(-n2nc(C(C)(C)C)cc2NC(=O)Nc2ccc(Oc3ccnc4[nH]c(=O)n(C)c34)cc2F)cc1 [AA-02, 1-(3-Tert-butyl-1-p-tolyl-1H-pyrazol-5-yl)-3-(2-fluoro-4-(1-N-methyl-2-oxo-2,3-dihydro-1H-imidazo[4,5-b]pyridin-7-yloxy)phenyl)urea]
GI50 [1]: 57 nM
IC50 [2]: 20 nM
IC50 (B-RAF): 197 nM

Cn1c(=O)[nH]c2nccc(Oc3ccc(NC(=O)Nc4cc(C(C)(C)C)nn4-c4ccc(Cl)cc4)c(F)c3)c21 [AA-03, 1-(3-Tert-butyl-1-(4-chlorophenyl)-1H-pyrazol-5-yl)-3-(2-fluoro-4-(1-N-methyl-2-oxo-2,3-dihydro-1H-imidazo[4,5-b]pyridin-7-yloxy)phenyl)urea]
GI50 [1]: 121 nM
IC50 [2]: 60 nM
IC50 (B-RAF): 302 nM
